Structures are written as SMILES. “Also recorded” adds a separate entry of the source. Where two headings read alike, the source gives them in different places.

9 compounds from US20100144779A1, “Marine Alkalod Makaluvamines and Derivatives Thereof” (THE UAB RESEARCH FOUNDATION, priority 2007, published 2010) can be followed below.

One assay concerns the target T1, topoisomerase II (Homo sapiens, UniProt P11388).
T1 construct: purchased TopoGEN, Inc., Port Orange, Fla
Nature of the assay: Topoisomerase II drug screening kit (relaxation of plasmid DNA). Format: biochemical. On the set-up: key to Topoisomerase II Inhibition: — none; + low; ++ moderate; +++ strong. The note with it: for Topoisomerase II Inhibition: 100 μM drug compound, topoisomerase II (4U), 500 ng plasmid DNA; for inhibition of topoisomerase II catalytic activity (in words): 100 μM makaluvamine derivative. The text has this:
In order to determine the effect of the makaluvamine derivatives of the present disclosure, the synthesized makaluvamine derivatives were screened for their ability to inhibit topoisomerase II activity in vitro. Topoisomerase II functions by generating a double-stranded DNA break followed by resealing of the break. Topoisomerase II inhibitors interfere with the breakage-rejoining reaction thereby trapping the enzyme in a cleavage complex. In order to determine if the disclosed makaluvamine derivatives inhibited topoisomerase II activity, nine of the derivatives were tested for topoisomerase II inhibitory activity using a topoisomerase-II drug screening kit (TopoGEN, Inc., Port Orange, Fla.) according to the manufacturer's instructions. The screening kit uses a supercoiled plasmid DNA substrate (pRYG) which contains one topoisomerase II cleavage/recognition site. […] Relaxed DNA was separated using non-ethidium bromide (EtBr) agarose gels, then stained with EtBr and quantified using Kodak Gel Logic Imaging System and Molecular Imaging software (Eastman Kodak Co., Rochester, N.Y.). Inhibition of relaxation of plasmid DNA or catalytic activity was reported as; − none, + low, ++ moderate, or +++ strong.

For another assay, the system named is MCF-7. In words: XTT cytotoxicity assay. Format: cell-based, human. As to the method: (§1) In initial experiments, compounds 4a-g and 7c-g were evaluated for their cytotoxicity against human breast cancer cell lines MCF-7 and MDA-MB-468 and human colon cancer cell line HCT-116. The makaluvamine compounds provided in Table 2 were also evaluated for their cytotoxicity against human breast cancer cell lines MCF-7. Compound nos. 8 and 27-33 were not evaluated in this experiment. Cells were obtained from ATCC (Manassas, Va.). For each derivative the IC50 value was determined using data generated from 2-4 independent tetrazolium-based (XTT) cytotoxicity assays (R & D Systems Inc., Minneapolis, Minn.) according to the manufacturer's instructions. […] MCF-7, MDA-MD-468 and HCT-116 cells were grown at 37 degrees C. in a humidified atmosphere with complete growth media supplemented with fetal bovine serum. Growth media was changed 2-3 times per week as required.
Background: Formazan colour is commonly taken as a measure of viable cells.

The test system of the next assay is MDA-MB-468. In words: XTT cytotoxicity assay. Format: cell-based, human. The note with it: read-out: Inhibition of Cancer Cell Proliferation (IC50) MDA-MB-468. As to the method:
as §1

In another assay the test system is HCT-116. In words: XTT cytotoxicity assay. Format: cell-based, human. The note with it: read-out: Inhibition of Cancer Cell Proliferation (IC50) HCT-116. As to the method: as §1
The subject of a further assay is p53. Nature of the assay: Protein expression, Western blot in MCF-7 cells. Format: cell-based, human. The note with it: 1 μM, 6 h (FIG. 4A). As to the method:
(§2) In FIG. 4A, MCF-7 cells were exposed to 1 μM concentration of the indicated compounds for 6 hours. Western blots were probed with antibodies specific for the proteins indicated. Numbers below each lane show densitometry readings for each lane as compared to control. […] Western blots were probed with antibodies specific for the proteins indicated.
(§3) To determine the disclosed compounds effect on protein expression in human breast cancer cells, cultured MCF-7 cells were exposed to various concentrations of the test compounds for 6 h (FIG. 4A) or 24 h (FIG. 4B). Cell lysates were fractionated with identical amounts of protein by SDS-PAGE and transferred to Bio-Rad trans-Blot nitrocellulose membranes (Bio-Rad Laboratories, Hercules, Calif.). The nitrocellulose membrane was incubated in blocking buffer (Tris-buffered saline containing 0.1% Tween 20 and 5% nonfat milk) for 1 h at room temperature, then with the appropriate primary antibody overnight at 4° C. or 2 h at room temperature with gentle shaking. Finally, the membrane was washed three times with the washing buffer (Tris-buffered saline containing 0.1% Tween 20) for 15 min, incubated with goat anti mouse/rabbit IgG-horseradish peroxidase-conjugated antibody (Bio-Rad) for 1 h at room temperature, and washed again (in triplicate). The protein of interest was detected by enhanced chemiluminescence reagents from PerkinElmer LAS, Inc (Boston, Mass.).
For orientation: Immunoblotting shows a protein as a band on a membrane.

In another assay the test system is MDM2. In words: Protein expression, Western blot in MCF-7 cells. Format: cell-based, human. The note with it: 1 μM, 6 h (FIG. 4A). As to the method:
as §2, §3

A further assay has as its system p21. Nature of the assay: Protein expression, Western blot in MCF-7 cells. Format: cell-based, human. As to conditions: 1 μM, 6 h (FIG. 4A). As to the method: as §2, §3
The subject of the next assay is MCF7 cells. In words: MTT growth inhibition assay. As to conditions: Table 5, MTT, 72 hr; for IC50: read-out: Growth inhibitory activity (IC50) in MCF7 cells. Format: cell-based, human.
Where [1] appears, read: XTT, average ± standard deviation of 2-4 independent assays, read-out: Inhibition of Cancer Cell Proliferation (IC50) MCF-7.
[2] abbreviates: average ± standard deviation of 2-4 independent assays.

T1 sequence (P11388 whole entry): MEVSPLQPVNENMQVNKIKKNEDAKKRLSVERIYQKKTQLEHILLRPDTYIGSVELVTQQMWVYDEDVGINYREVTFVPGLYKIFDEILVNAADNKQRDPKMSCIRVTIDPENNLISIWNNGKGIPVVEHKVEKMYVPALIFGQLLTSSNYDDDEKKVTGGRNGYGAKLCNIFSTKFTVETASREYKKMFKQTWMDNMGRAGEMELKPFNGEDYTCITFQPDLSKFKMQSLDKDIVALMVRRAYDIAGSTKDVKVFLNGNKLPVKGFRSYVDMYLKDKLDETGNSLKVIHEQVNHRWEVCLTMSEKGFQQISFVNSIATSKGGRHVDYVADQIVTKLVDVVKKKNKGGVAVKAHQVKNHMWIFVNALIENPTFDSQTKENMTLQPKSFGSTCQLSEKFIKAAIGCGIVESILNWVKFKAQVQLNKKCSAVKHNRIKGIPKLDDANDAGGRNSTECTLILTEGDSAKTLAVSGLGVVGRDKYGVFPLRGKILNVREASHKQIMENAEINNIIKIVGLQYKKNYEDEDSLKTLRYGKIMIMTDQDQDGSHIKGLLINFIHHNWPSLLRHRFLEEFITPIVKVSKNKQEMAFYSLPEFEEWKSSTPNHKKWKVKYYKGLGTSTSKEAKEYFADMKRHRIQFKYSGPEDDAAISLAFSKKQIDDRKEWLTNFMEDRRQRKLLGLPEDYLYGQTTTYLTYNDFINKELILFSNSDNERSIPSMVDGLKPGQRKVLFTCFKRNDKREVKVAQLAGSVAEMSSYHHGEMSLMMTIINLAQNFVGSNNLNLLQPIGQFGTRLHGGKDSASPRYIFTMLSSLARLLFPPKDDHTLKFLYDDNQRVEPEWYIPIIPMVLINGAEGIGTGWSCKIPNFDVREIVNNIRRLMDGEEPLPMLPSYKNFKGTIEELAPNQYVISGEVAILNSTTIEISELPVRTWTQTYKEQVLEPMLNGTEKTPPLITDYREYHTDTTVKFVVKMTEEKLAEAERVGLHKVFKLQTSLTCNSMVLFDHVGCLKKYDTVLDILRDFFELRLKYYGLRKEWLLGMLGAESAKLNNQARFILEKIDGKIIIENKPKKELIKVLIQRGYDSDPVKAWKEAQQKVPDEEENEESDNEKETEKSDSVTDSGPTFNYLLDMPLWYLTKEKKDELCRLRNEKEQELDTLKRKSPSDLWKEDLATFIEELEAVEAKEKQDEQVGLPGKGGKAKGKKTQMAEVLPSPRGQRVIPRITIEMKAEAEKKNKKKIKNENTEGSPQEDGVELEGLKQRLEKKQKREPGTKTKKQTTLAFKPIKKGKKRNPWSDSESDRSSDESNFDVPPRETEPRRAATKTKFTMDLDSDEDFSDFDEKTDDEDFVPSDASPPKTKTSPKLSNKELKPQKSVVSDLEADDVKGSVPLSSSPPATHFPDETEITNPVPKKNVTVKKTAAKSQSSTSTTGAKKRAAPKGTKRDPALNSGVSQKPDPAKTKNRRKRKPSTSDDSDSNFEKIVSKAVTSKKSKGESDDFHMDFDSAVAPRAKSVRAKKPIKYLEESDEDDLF
Description for MCF7 cells: The cell lines were obtained from the American Type Culture Collection (Rockville, Md.) and were grown as follows: MCF-7 (p53 wt) breast cancer cells were grown in DMEM media containing 1 mM non-essential amino acids, Earle's BSS, 1 mM Na pyruvate, and 10 mg/L bovine insulin.
All media contained 10% FBS and 1% penicillin/streptomycin unless otherwise specified. The effects of disclosed compounds on human cancer cell growth, expressed as the percentage of cell survival, were determined by the MTT [3-(4,5-Dimethyl-2-thiazolyl)-2,5-diphenyl-2H-tetrazolium bromide] assay. Cells were grown in 96-well plates and exposed to the test compounds (0, 0.01, 0.1, 1, 10, 100 μM) for 72 hr followed by addition of 10 μL MTT solution (5 mg/mL; Sigma; St. Louis, Mo.) to each well. The plates were incubated for 2-4 hr at 37° C. The supernatant was then removed and formazan crystals were dissolved with 100 μL of DMSO. The absorbance at 570 nm was recorded with an OPTImax microplate reader (Molecular Devices; Sunnyvale, Calif.). The cell survival percentages were calculated by dividing the mean OD of compound containing wells by that of DMSO-control wells. Three separate experiments were accomplished to determine the IC50.

On to `COc1cc(NS(C)(=O)=O)ccc1Nc1c2ccccc2nc2ccccc12` [m-AMSA, reference compound], for which the “Topoisomerase II Inhibition” value on topoisomerase II was “++”. Besides, the values for the IC50 in the assay with MCF-7 (setting [1]), in the assay on MDA-MB-468 (setting [2]) and in the assay with HCT-116 (setting [2]) were 21.7 µM, 8.5 µM and 0.7 µM, respectively.
Take `Cc1ccc(S(=O)(=O)n2cc3c4c2C(=O)C(NCc2ccccc2)=CC4=NCC3)cc1` [Compound 7c]: the “Topoisomerase II Inhibition” value at topoisomerase II was “+++”. In addition, at topoisomerase II, the “inhibition of topoisomerase II catalytic activity (in words)” value was “comparable to etoposide and m-AMSA; also recorded: strongest inhibition”. The “expression of p53” value with p53 was “increased the expression”. Further, in the assay with MDM2, the “expression of MDM2” value is recorded as “inhibited the expression”. Besides, in the assay on p21, the “expression of p21” value is listed as “decreased the expression”. Also, the “Growth inhibitory activity (IC50) in MCF7 cells” value in the assay with MCF7 cells is recorded as “μM range”. The IC50 was 1.21 µM in the assay with MCF7 cells, 1.8 ± 0.2 µM in the assay on MCF-7 (setting [1]), 1 ± 0.01 µM with MDA-MB-468 (setting [2]) and 2.7 ± 1.5 µM in the assay with HCT-116 (setting [2]).
With `Cc1ccc(S(=O)(=O)n2cc3c4c2C(=O)C(NCCc2cc(Br)c(O)c(Br)c2)=CC4=NCC3)cc1` [Compound 7f], the IC50 was determined as 2.3 ± 1.1 µM with MCF-7 (setting [1]), 1.5 ± 0.9 µM in the assay on MDA-MB-468 (setting [2]) and 1 ± 0.2 µM with HCT-116 (setting [2]).
`Cc1ccc(S(=O)(=O)n2cc3c4c2C(=O)C(NCCc2c[nH]c5ccccc25)=CC4=NCC3)cc1` [Compound 7g]: the IC50 with MCF-7 (setting [1]) was 1.2 ± 0.03 µM; with MDA-MB-468 (setting [2]) it was 1.4 ± 0.9 µM; with HCT-116 (setting [2]), 0.8 ± 0.3 µM.
Regarding `Cc1ccc(S(=O)(=O)n2cc3c4c2C(=O)C(NCCc2ccccc2)=CC4=NCC3)cc1` [Compound 7d], the IC50 in the assay with MCF-7 (setting [1]) came to 1.5 ± 0.1 µM; in the assay on MDA-MB-468 (setting [2]), 0.8 ± 0.1 µM; in the assay on HCT-116 (setting [2]) it was 0.5 µM.
On to `O=C1C(NCCc2cc(Br)c(O)c(Br)c2)=CC2=NCCc3c[nH]c1c32` [Compound 4f], for which, on topoisomerase II, the “Topoisomerase II Inhibition” value is listed as “+++”. In addition, the “inhibition of topoisomerase II catalytic activity (in words)” value at topoisomerase II is “comparable to etoposide and m-AMSA; also recorded: strongest inhibition”. The “expression of p53” value in the assay on p53 was “increased the expression”. Further, the “expression of MDM2” value with MDM2 is given as “increased the expression”. Further, the “expression of p21” value in the assay with p21 is on record as “increased the expression”. The “Growth inhibitory activity (IC50) in MCF7 cells” value in the assay on MCF7 cells was “μM range”. For the same compound, the IC50 is 2.72 µM with MCF7 cells, 13.2 ± 3.1 µM with MCF-7 (setting [1]), 4.5 ± 0.8 µM in the assay on MDA-MB-468 (setting [2]) and 14.4 ± 1.2 µM in the assay with HCT-116 (setting [2]).
As for `O=C1C(NCCc2c[nH]c3ccccc23)=CC2=NCCc3c[nH]c1c32` [Compound 4g], at topoisomerase II, the “Topoisomerase II Inhibition” value is “—”. The IC50 in the assay on MCF-7 (setting [1]) came to 1.6 ± 0.2 µM; in the assay on MDA-MB-468 (setting [2]) it was 0.4 ± 0.01 µM; with HCT-116 (setting [2]), 5.2 ± 0.8 µM.
For `CCNC1=CC2=NCCc3c[nH]c(c32)C1=O` [Compound 4b], in that order: “—”, 1.3 ± 0.3 µM, 0.4 ± 0.03 µM and 3.6 ± 0.7 µM.
In the case of `COc1cc([C@@H]2c3cc4c(cc3[C@@H](O[C@@H]3O[C@@H]5CO[C@@H](C)O[C@H]5[C@H](O)[C@H]3O)[C@H]3COC(=O)[C@H]23)OCO4)cc(OC)c1O` [Etoposide, reference compound], the IC50 with MCF-7 (Homo sapiens, MCF7, Table 2, XTT, read-out: IC50 (μM) MCF-7) stood at 30.5 µM; with MCF-7 (Homo sapiens, MCF7, XTT, average ± standard deviation of 2-4 independent assays, read-out: Inhibition of Cancer Cell Proliferation (IC50) MCF-7), 35.6 µM; with MDA-MB-468 (Homo sapiens, MDA-MB-468, average ± standard deviation of 2-4 independent assays), 13.6 µM; in the assay on HCT-116 (Homo sapiens, HCT-116, average ± standard deviation of 2-4 independent assays), 1.7 µM.
